Laboratory results from patent US20230365626A1, “Alloferon Peptide and Method Using the Same” (Industry Academy Cooperation Foundation of Sejong University, priority 2020, published 2023).
One block for each molecule: values may come before it. Square brackets hold non-standard residues; d marks the D form. Ends that are not written are not given here. Peptide text beside a SMILES is read from it.

Columns and labels:
[1] = test system: β-amyloid aggregates (Aβ aggregates); experiment: β-amyloid 1-42 protein aggregates in transfected 293T cells; assay type: cell-based
Procedure: (§1) In addition, in this study, H4 cell line (GL-H4) and 293T cell line in which the GFP-LC3 plasmid was permanently infected were used. As a cell culture medium, 10% fetal bovine serum (Hyclone, USA) and a mixture solution of antibiotics and antifungal agents (WellGene, South Korea) were added to Minimum Essential Medium (MEM, WellGene) and incubated in a cell incubator in which the conditions of 37° C. and 5% CO2 were maintained.
(§2) In the pre-preparation process, 10-12 days after cell culture, the culture medium of the cerebral cortex nerve cells was changed to a minimum essential medium (MEM, Gibco, USA) without adding serum, and then was treated with N,N,N′,N′-tetrakis(2-pyridylmethyl)ethylene-diamine (TPEN, 2 μM, Sigma, USA), which is a zinc chelator, 50 μM chloroquine (CQ), 100 nM bafilomycin A-1 (Baf-A1), 500 μM methyl-beta-cyclodextrin (MβCD), and 2 μM chloropromazine (CP). Here, the MβCD is a caveolin-mediated endocytosis inhibitor, and CP is a clathrin-mediated endocytosis inhibitor. In addition, in the cell line experiments, the medium was changed to MEM according to the purpose of the experiments and was then treated with 40 μM chloroquine (CQ) and 100 nM bafilomycin A-1 (Baf-A1). During the pre-preparation process, the medium was treated with alloferon D-form peptides (0.2, 2, or 20 μM), free zinc (25 μM), TPEN (1 μM), and the like separately or together according to the purpose of each experiment.
Subsequently, the present inventors investigated whether alloferon may dissolve the β-amyloid aggregates (Aβ aggregates) generated after the transient transfection of β-amyloid 1-42 (Aβ1-42) into 293T cell lines. To this end, EGFP-tagged 1-42Aβ (pEGFP-C1-Abeta 1-42) DNA was transiently transfected into 293T cell lines using Lipofectamine2000. For cell observation, GFP signals were analyzed through a fluorescence microscope, and ImageJ was used for size and number analysis of GFP-positive aggregates. pEGFP-C1-Abeta 1-42 DNA was purchased from Addgene. Western blot analysis was performed in the same manner as in Example 5, except that anti-6E10-antibodies (Biolegend, USA) were used as the antibodies (FIG. 7).

[2] = test system: Huntington protein aggregates (Htt aggregates); experiment: Mutant Huntington protein aggregates in transfected 293T cells; assay type: cell-based
Procedure: as §1, §2
Subsequently, the present inventors investigated whether alloferon may dissolve Huntington protein aggregates (Htt aggregates) generated after the transient transfection of mutant Huntington protein (mt-Htt) into 293T cell lines. To this end, GFP-tagged Huntington Q74 (GFP-mHttQ74) DNA was transiently transfected into 293T cell lines using Lipofectamine2000. For cell observation, GFP signals were analyzed through a fluorescence microscope, and ImageJ was used for size and number analysis of GFP-positive aggregates (FIG. 8A). GFP-mHttQ74 DNA was provided by Dr. David C. Rubinsztein of the University of Cambridge, England (Park et al., Neurobiol. Dis. 42: 242-251, 2011). […]

cortical nerve cells [3] = experiment: Mechanism of action: receptor-mediated endocytosis, p62/LC3 western blot with Baf-A1; assay type: cell-based, ICR mouse; conditions: inhibitor administered alone (500 μM MβCD or 2 μM CP) with Baf-A1 + 20 μM peptide (FIG. 9B)
Procedure: as §2
Since the protein cannot pass through the cell membrane, the present inventors thought that the alloferon D-form peptides would be introduced through an endocytosis process. Thus, the present inventors investigated whether the alloferon D-form peptides act through a receptor-mediated endocytosis process. […]

H4 cell line (GL-H4) = experiment: LC3-GFP puncta, autophagic flux blocked by chloroquine (fluorescence microscopy); assay type: cell-based; conditions: 50 μM CQ alone
Procedure: In addition, in this study, H4 cell line (GL-H4) and 293T cell line in which the GFP-LC3 plasmid was permanently infected were used. As a cell culture medium, 10% fetal bovine serum (Hyclone, USA) and a mixture solution of antibiotics and antifungal agents ([…], South Korea) were added to Minimum Essential Medium ([…]) and incubated in a cell incubator in which the conditions of 37° C. and 5% CO2 were maintained. […] Here, the MβCD is a caveolin-mediated endocytosis inhibitor, and CP is a clathrin-mediated endocytosis inhibitor. In addition, in the cell line experiments, the medium was changed to MEM according to the purpose of the experiments and was then treated with 40 μM chloroquine (CQ) and 100 nM bafilomycin A-1 (Baf-A1). During the pre-preparation process, the medium was treated with alloferon D-form peptides (0.2, 2, or 20 μM), free zinc (25 μM), TPEN (1 μM), and the like separately or together according to the purpose of each experiment. […] Protein quantification was performed using BCA protein assay kit (Pierce Biotechnology, USA). Then, 5× sample buffer (300 mM Tris, pH 6.8, 10% SDS, 50% glycerol, 0.1% BPB, 2.5% mercaptoethanol, and 100 mM DTT) was mixed with a quantified sample and denatured at 95° C. for 5 minutes to prepare the sample. […]

cortical nerve cells [4] = experiment: Lysotracker staining (lysosomal pH); assay type: cell-based, ICR mouse
Text: The cerebral cortex nerve cells of the mice were obtained by extracting the cerebrum from ICR mouse embryos of 13-14 day gestation. 6-7 hemispheres per culture dish were inoculated on 24-well culture dishes or 6-well culture dishes (SPL Life Science, South Korea) coated with 0.01% poly-D-lysine (Sigma, USA) prepared in advance. […]
Since it was confirmed through FIG. 2 that alloferon may promote the autophagic flux, whether the alloferon D-form peptides are involved in pH change in the lysosome was confirmed through lysotracker staining. […] It means that the stronger the fluorescence intensity, the lower the pH, and the weaker the fluorescence intensity, the higher the pH. It was confirmed that the pH in the lysosome was lowered by only the treatment with the alloferon D-form peptides compared to the control (FIG. 3A), and when treatment with 50 μM CQ was performed, the fluorescence intensity decreased compared to the control, and this was recovered by the treatment with the alloferon D-form peptides and zinc (FIG. 3B). […]

[5] = test system: TFEB, cathepsin B, and cathepsin D; experiment: Western blot of TFEB, cathepsin B and cathepsin D expression; assay type: cell-based, ICR mouse; conditions: 1 μM TPEN with 20 μM alloferon D-form peptide, 4 hours (FIG. 5B)
Procedure: The cerebral cortex nerve cells of the mice were obtained by extracting the cerebrum from ICR mouse embryos of 13-14 day gestation. 6-7 hemispheres per culture dish were inoculated on 24-well culture dishes or 6-well culture dishes (SPL Life Science, South Korea) coated with 0.01% poly-D-lysine (Sigma, USA) prepared in advance. A cell culture medium, in which Dulbecco's Modified Eagle's Medium (DMEM, Gibco, USA) to which 20 mM glucose and 38 mM sodium bicarbonate were added and which was further supplemented with 5% fetal bovine serum (Hyclone, USA), 5% horse serum (Gibco, USA), and 1% glutamine, was used, and the cell culture medium was incubated in a cell incubator, in which the conditions of 37° C. and 5% CO2 were maintained, and was used in this experiment 10 to 12 days in vitro (DIV) after inoculation.
The present inventors had observed that the effect of enhancing the autophagic flux by the alloferon D-form peptides is achieved through the activity of cathepsin B and the decrease in the lysosomal pH, and thus, this time, the present inventors investigated through western blot analysis in order to find out whether there is a change in the amount of lysosomal protease expression. […]

[6] = test system: cerebral cortical nerve cells; experiment: Zinpyr-1 staining (zinc in the lysosome); assay type: cell-based, ICR mouse; conditions: in combination with 1 μM TPEN, 4 hours
Procedure: Subsequently, the present inventors measured the zinc concentration in the cells to determine what effect the treatment with the alloferon D-form peptides has on the zinc concentration in the lysosome. To this end, specifically, the cerebral cortical nerve cells were washed once with MEM, and then the MEM was replaced with MEM containing 5 μM zinpyr-1, an intracellular zinc marker (Cayman Chemical, USA, Ex=492 nm, Em=527 nm) and 75 nM lysotracker, and left at 37° C. for 30 minutes. Thereafter, it was washed with fresh MEM and treated with individual reagents (alloferon D-form peptides) according to the experimental conditions. Then, the cells were fixed with 4% PFA (pH 7.4) for 15 minutes, washed twice with PBS (Biowest, France), and photographed with a fluorescent microscope.

IL-6 = experiment: Plasma cytokine ELISA after intraperitoneal injection; assay type: in vivo, mice; conditions: 0.5, 2, 8, and 16 mg/kg intraperitoneally, after 1 hour
Procedure: (§3) Specifically, the alloferon D-form peptides were intraperitoneally injected at 0.5, 2, 8, and 16 mg/kg, and after 1 hour, blood was collected from the retro-orbital plexus of the mice. The collected blood was centrifuged at 2,000 g at 4° C. for 20 minutes using a centrifuge, and then only the supernatant was taken to obtain plasma. Thereafter, an experiment was performed using TNF-α and IL-6 Elisa kit (RayBiotech, USA). Specifically, 100 μL of plasma sample was put into a 96-well microplate coated with each of anti-TNF-α and anti-IL-6 antibodies, and then left while shaking at room temperature for 2 hours and 30 minutes. Thereafter, the sample was discarded, washed 4 times with a wash buffer provided from the kit, and then 100 μL of the biotin-binding secondary antibodies was reacted for 1 hour. Then, it was washed 4 times with a washing buffer, 100 μL of streptavidin solution was added thereto, left while shaking at room temperature for 45 minutes, and washed again 4 times with a washing buffer. After 100 μL of TMB One-step substrate was added thereto and left for 30 minutes, 50 μL of a reaction termination solution was added thereto, and then 450 nm absorbance was measured by a spectrophotometer.

[7] = Body weight change during intraperitoneal administration; assay type: in vivo, mice; conditions: 16 mg/kg intraperitoneal, 14 weeks (FIG. 10C)
TNF-α = conditions: 0.5, 2, 8, and 16 mg/kg intraperitoneally, after 1 hour
Procedure: as §3

[8] = In vitro plasma stability analysis (LC / mass spectrometry)
Procedure: In vitro plasma stability analysis was performed in order to compare the stability of L-form peptides and D-form peptides of the alloferon in the plasma of mice. […] The 10 μM alloferon L-form and D-form peptides were put into 100 μL of plasma, respectively, and then allowed to stand at 37° C. for 0, 5, 10, 30, 60, and 90 minutes. Thereafter, 500 μL of cold methanol was added thereto to precipitate proteins, and the proteins were lyophilized, followed by liquid chromatography and protein mass spectrometry.

[9] = 100 nM bafilomycin A1 alone, 12 hours
[10] = treatment alone, without Baf-A1

Molecule: CO/C1=C\C(C)=C\[C@@H](C)[C@@H](O)[C@@H](C)C/C(C)=C/C=C/[C@H](OC)[C@@H]([C@@H](C)[C@@H](O)[C@H](C)[C@@]2(O)C[C@@H](O)[C@H](C)[C@@H](C(C)C)O2)OC1=O [Baf-A1, bafilomycin A-1]
β-amyloid protein aggregates [1, 9]: increased
Huntington protein aggregates [2, 9]: increased

Molecule: CN(C)CCCN1c2ccccc2Sc2ccc(Cl)cc21 [CP, chloropromazine]
effect of the alloferon D-form peptides on autophagic flux (cortical nerve cells [3]): not changed

Molecule: CCN(CC)CCCC(C)Nc1ccnc2cc(Cl)ccc12 (stereo not shown) [CQ, chloroquine]
number and size of LC3 puncta (H4 cell line (GL-H4)): significantly increased
lysotracker fluorescence intensity compared to the control (cortical nerve cells [4]; 50 μM CQ alone, 4 hours): decreased

Molecule: c1ccc(CN(CCN(Cc2ccccn2)Cc2ccccn2)Cc2ccccn2)nc1 [TPEN, N,N,N′,N′-tetrakis(2-pyridylmethyl)ethylene-diamine]
amounts of TFEB, cathepsin B, and cathepsin D [5]: reduced
Zinpyr-1 fluorescence increased by the alloferon D-form peptides [6]: reduced

Molecule: CC(C)[C@@H](NC(=O)CNC(=O)[C@H](N)Cc1c[nH]cn1)C(=O)N[C@H](CO)C(=O)NCC(=O)N[C@H](Cc1c[nH]cn1)C(=O)NCC(=O)N[C@H](CCC(N)=O)C(=O)N[C@H](Cc1c[nH]cn1)C(=O)NCC(=O)N[C@@H](C(=O)N[C@H](Cc1c[nH]cn1)C(=O)NCC(=O)O)C(C)C [alloferon D-form peptides] (H-[dH]G[dV][dS]G[dH]G[dQ][dH]G[dV][dH]G-OH; N-terminus and C-terminus assumed)
changes in IL-6 in plasma compared to the control (IL-6): not observed
amount of changes in the body weights of mice [7]: did not change
changes in TNF-α in plasma compared to the control (TNF-α): not observed

Molecule: [Zn] [zinc]
lysotracker fluorescence intensity decreased by 50 μM CQ (cortical nerve cells [4]; 20 μM peptide or 25 μM zinc + 50 μM chloroquine, 4 hours (FIG. 3B)): recovered
β-amyloid protein aggregates increased by Baf-A1 (fluorescence) ([1]; 100 nM bafilomycin A1 + 2 or 20 μM peptide or 25 μM zinc, 12 hours (FIG. 7A)): decreased
β-amyloid aggregates increased by Baf-A1 (western blot) ([1]; 100 nM bafilomycin A1 + peptide or 25 μM zinc, 12 hours (FIG. 7B)): decreased
β-amyloid protein aggregates compared to the control group [1, 10]: no change
Huntington protein aggregates increased by Baf-A1 ([2]; 100 nM bafilomycin A1 + 20 μM peptide or 25 μM zinc, 12 hours (FIG. 8)): decreased
Huntington protein aggregates compared to the control [2, 10]: no change

degradation / stability in plasma ([8]; mouse plasma, 10 μM, 37° C., 0-90 minutes): degraded from an early time in plasma
half-life ([8]; mouse, plasma): 51.8 min
Molecule: HGVSGHGQHGVHG [alloferon L-form peptides]

Molecule: methyl-beta-cyclodextrin [MβCD]
effect of the alloferon D-form peptides on autophagic flux (cortical nerve cells [3]): not changed
